# Counter-ions that a name gives are not always drawn.
row,Structure (SMILES),melting point
1,COc1ncc(-c2nc(N=C(N)N)nc3ccc(Cl)cc23)c(OC)n1 (as salt: HCl) [Example 235],270 to 275 °C
2,NC(N)=Nc1nc(-n2c(Br)ccc2Br)c2cc(Cl)ccc2n1 (as salt: HCl) [Example 196],302 °C
3,Cc1noc(C)c1-c1nc(N=C(N)N)nc2ccc(Cl)cc12 (as salt: HCl) [Example 215],317 to 320 °C

# Reference: patent publication US20050113396A1, “2-Guanidino-4-heterocyclylquinazolines” (priority 2001, published 2005)
